Assay results published in patent publication US20250049812A1, “Compounds that Inhibit Necroptosis and Their Preparation Methods” (SHANGHAI INSTITUTE OF ORGANIC CHEMISTRY, CHINESE ACADEMY OF …, priority 2021, published 2025).
Read-outs that look alike come from different tables or passages of the source.

Key:
RIPK1 = target: T1, RIPK1 (Homo sapiens, UniProt Q13546); experiment: RIPK1 activity inhibition test (NANOSYN); type: biochemical; conditions: 12 concentrations, threefold dilution, 1% DMSO
T1 sequence (Q13546 1-671): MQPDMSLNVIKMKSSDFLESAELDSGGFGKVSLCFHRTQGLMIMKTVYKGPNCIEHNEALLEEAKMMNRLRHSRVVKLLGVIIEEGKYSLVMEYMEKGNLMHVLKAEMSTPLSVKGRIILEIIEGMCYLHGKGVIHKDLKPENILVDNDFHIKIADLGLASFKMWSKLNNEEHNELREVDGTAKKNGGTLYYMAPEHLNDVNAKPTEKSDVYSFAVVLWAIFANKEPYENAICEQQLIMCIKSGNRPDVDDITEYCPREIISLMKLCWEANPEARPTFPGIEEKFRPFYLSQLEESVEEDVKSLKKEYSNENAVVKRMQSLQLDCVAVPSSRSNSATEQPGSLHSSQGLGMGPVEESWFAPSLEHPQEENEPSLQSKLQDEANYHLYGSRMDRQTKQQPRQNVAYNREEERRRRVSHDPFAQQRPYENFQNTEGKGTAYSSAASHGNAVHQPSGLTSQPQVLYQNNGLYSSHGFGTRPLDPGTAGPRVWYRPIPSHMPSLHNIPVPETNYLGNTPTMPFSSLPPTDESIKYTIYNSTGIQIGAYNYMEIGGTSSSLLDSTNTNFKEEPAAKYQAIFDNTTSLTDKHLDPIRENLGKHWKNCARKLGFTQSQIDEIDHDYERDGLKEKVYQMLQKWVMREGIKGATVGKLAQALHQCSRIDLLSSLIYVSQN
Method: The test compounds were dissolved in DMSO, with the highest concentration being […]. Subsequently, the concentrations were serially diluted threefold, with the DMSO concentration in the test medium maintained at 1%. IC50 values were calculated from data generated prom 12 tested concentrations.

[1] = Study of oral pharmacokinetics in rats; conditions: rat, in vivo, male SD rats, p.o.; for bioavailability: i.v. 1 mg/kg; for AUC(0-t): read-out: AUC0-8
Method: Healthy male SD rats were used as experimental animals. The intragastric (p.o.) administration was performed, with a dosage of 5 mg/kg or 15 mg/kg. Preparation: the compound was dissolved in a formulation made of 1% tween 80, 1% HMPC, and 98% water. The mixture was ground and shaken until the compound was uniformly distributed with a small particle size, and then 1 equivalent of methanesulfonic acid was added. The intravenous administration was performed with a dosage of 1 mg/kg. Preparation: 5% DMSO, 10% EtOH, 10% sulotol, and 75% physiological saline was added to the compound, and mixed well. Samples were taken at 5 minutes, 15 minutes, 30 minutes, 1 hour, 2 hours, 4 hours, 6 hours, and 8 hours after administration, and then the samples were analyzed using liquid chromatography tandem mass spectrometry (LC-MS/MS).

Jurkat FADD (−/−) Cells = experiment: TNF-α induced necroptosis of Jurkat FADD-deficient cells (CellTiter-Glo cell survival); type: cell-based, human; conditions: Homo sapiens; TNF-α induced necroptosis, Jurkat FADD-deficient cells, 13 hours, CellTiter-Glo; read-out: IC50
Method in brief: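 Cells in RPMI 1640 with 10% FBS were pretreated for 1 h at 37 °C with compound (12-point threefold series from 25 μM, or 0.5 μM, in triplicate). They were then stimulated with TNFα added as a 5 ng/mL solution for 13 h. Survival was read by luminescence.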

| Structure (SMILES) | IC50 (RIPK1) | Cmax ([1]; 5 mg/kg) | Tmax ([1]; 5 mg/kg) | half-life ([1]; 5 mg/kg) | bioavailability ([1]; 5 mg/kg) | AUC(0-t) ([1]; 5 mg/kg) | IC50 (Jurkat FADD (−/−) Cells) | also measured |
| --- | --- | --- | --- | --- | --- | --- | --- | --- |
| CN1C(=O)[C@@H](NC(=O)c2nnc(Cc3ccccc3)[nH]2)Cc2cn(-c3ncccc3C(F)(F)F)c3cccc1c23 [T-96, (S)-5-benzyl-N-(1-methyl-2-oxo-6-(3-(trifluoromethyl)pyridin-2-yl)-2,3,4,6-tetrahydro-1H-azacyclo [4,3,2-cd]indol-3-yl)-4H-1,2,4-triazole-3-carboxamide] | 15.2 nM | 1270 ng/mL | 1 h | 3.76 h | 28.2% | 4900 ng·h/mL | < 10 nM |  |
| CN1C(=O)C(NC(=O)c2nnc(Cc3ccccc3)[nH]2)Cc2cn(-c3cnn(C)c3)c3cccc1c23 (racemic) [T-34, (±)-5-benzyl-N-(1-methyl-6-(1-methyl-1H-pyrazol-4-yl)-2-oxo-2,3,4,6-tetrahydro-1H-azacyclo [4,3,2-cd]indol-3-yl)-4H-1,2,4-triazole-3-carboxamide] | 50.4 nM |  |  |  |  |  | < 10 nM |  |
| CN1C(=O)C(NC(=O)c2nnc(Cc3ccccc3)[nH]2)Cn2cc(-c3ccnn3C)c3cccc1c32 (racemic) [T-16, (±)-5-benzyl-N-(1-methyl-7-(1-methyl-1H-pyrazol-5-yl)-2-oxy-1,2,3,4-tetrahydro-[1,4]diazepino [3,2,1-hi]indol-3-yl)-4H-1,2,4-triazole-3-carboxamide] | 47.8 nM |  |  |  |  |  | < 10 nM |  |
| CN1C(=O)[C@@H](NC(=O)c2nnc(Cc3ccccc3)[nH]2)Cn2cc(-c3cn(C)nc3C(F)(F)F)c3cccc1c32 [T-118, (S)-5-benzyl-N-(1-methyl-7-(1-methyl-3-(trifluoromethyl)-1H-pyrazol-4-yl)-2-oxo-1,2,3,4-tetrahydro-[1,4]diazepine [3,2,1-hi]indol-3-yl)-4H-1,2,4-triazole-3-carboxamide] | 24.9 nM |  |  |  |  |  | < 10 nM |  |
| CN1C(=O)C(NC(=O)c2nnc(Cc3ccccc3)[nH]2)Cc2cn(-c3ncccc3C(F)(F)F)c3cccc1c23 (racemic) [T-40, (±)-5-benzyl-N-(1-methyl-2-oxo-6-(3-(trifluoromethyl)pyridin-2-yl)-2,3,4,6-tetrahydro-1H-azacyclo [4,3,2-cd]indol-3-yl)-4H-1,2,4-triazole-3-carboxamide] |  | 2230 ng/mL | 1 h | 3.26 h | 31.4% | 9040 ng·h/mL | < 10 nM |  |
| CN1C(=O)[C@@H](NC(=O)c2nnc(Cc3ccccc3)[nH]2)Cc2cn(-c3ncccc3OC(F)F)c3cccc1c23 [T-112, (S)-5-benzyl-N-(6-(3-(difluoromethoxy)pyridin-2-yl)-1-methyl-2-oxo-2,3,4,6-tetrahydro-1H-aza [4,3,2-cd]indol-3-yl)-4H-1,2,4-triazole-3-carboxamide] | 28.3 nM | 494 ng/mL | 0.75 h | 1.99 h | 18.3% | 1700 ng·h/mL | < 10 nM | Cmax ([1]; 15 mg/kg): 3930 ng/mL; Tmax ([1]; 15 mg/kg): 1.5 h; half-life ([1]; 15 mg/kg): 1.91 h; bioavailability ([1]; 15 mg/kg): 57.1%; AUC(0-t) ([1]; 15 mg/kg): 15900 ng·h/mL |
| CC(C)c1cccnc1-n1cc2c3c(cccc31)N(C)C(=O)C(NC(=O)c1nnc(Cc3ccccc3)[nH]1)C2 (racemic) [T-65, (±)-5-benzyl-N-(6-(3-isopropylpyridin-2-yl)-1-methyl-2-oxo-2,3,4,6-tetrahydro-1H-azacyclo [4,3,2-cd]indol-3-yl)-4H-1,2,4-triazole-3-carboxamide] |  |  |  |  |  |  | 10 to 100 nM |  |
| COC(=O)c1nccnc1-n1cc2c3c(cccc31)N(C)C(=O)C(NC(=O)c1nnc(Cc3ccccc3)[nH]1)C2 (racemic) [T-50, (±)-3-(3-(5-benzyl-4H-1,2,4-triazole-3-carboxamide)-1-methyl-2-oxo-1,2,3,4-tetrahydro-6H-azacyclo [4,3,2-cd]indol-6-yl)methyl pyrazine-2-carboxylate] |  |  |  |  |  |  | < 10 nM |  |
| Cc1c(-c2cn3c4c(cccc24)N(C)C(=O)[C@@H](NC(=O)c2nnc(Cc4ccccc4)[nH]2)C3)cnn1C [T-125, (S)-5-benzyl-N-(7-(1,5-dimethyl-1H-pyrazol-4-yl)-1-methyl-2-oxo-1,2,3,4-tetrahydro-1,4-diazepine [3,2,1-hi]indol-3-yl)-4H-1,2,4-triazole-3-carboxamide] |  |  |  |  |  |  | < 10 nM |  |
| COCc1cccc(-c2cn3c4c(cccc24)N(C)C(=O)C(NC(=O)c2nnc(Cc4ccccc4)[nH]2)C3)c1 (racemic) [T-80, (±)-5-benzyl-N-(7-(3-(methoxymethyl)phenyl)-1-methyl-2-oxo-1,2,3,4-tetrahydro-[1,4]diazepino [3,2,1-hi]indol-3-yl)-4H-1,2,4-triazole-3-carboxamide] |  |  |  |  |  |  | 10 to 100 nM |  |
